# Experiments:
# [1] = In vitro gut permeation study; assay type: in vitro ADME; conditions: after 8 h
# Method: The experimental protocol was approved by the Institutional Animal Ethical Committee (IAEC) with approval number CPCSEA/IAEC/JLS/16/9/21/13. Experiments on a fasted Wistar rat’s (weighing 250–300 g) small intestine were conducted in a laboratory setting. An intestinal segment was removed from a dead rat after euthanasia using CO2 inhalation and it was cut into lengths of 6–7 cm. […] In a beaker heated to 37 °C, the sac was submerged in an oxygenated Krebs Ringer solution (20 mL). The sink was maintained by removing and replacing aliquots of 1 mL every 0.5, 1, 1.5, 2, and 8 h with an equivalent volume of warm Krebs Ringer solution heated to 37 °C. Each aliquot’s medication concentration was measured using HPLC (n = 3). The HPLC system is equipped through a Shimadzu LC-10AD VP pump, a C18 Agilent column (Inertsil, 150 mm × 4.66 mm, […]), and a flow rate of 1 mL/min; the mobile phase has been degassed. It is made up of an acetonitrile, water, and methanol (50:10:40) ratio. The detector wavelength was set at 425 nm. The injection volume was 10 µL. The samples were measured after diluting suitably with methanol. Each formulation’s flow and permeability coefficients were calculated.
# Papp(cm/sec)=(DQ/dt)(AxCO)
# [2] = In vitro drug release (dialysis bag, phosphate buffer pH 6.8, 37 °C); assay type: physicochemical
# Method: The in vitro drug release research was conducted at 37 °C for 24 h in a phosphate buffer (pH 6.8).
# The dialysis bag’s molecular weight threshold of 12–14 KDa was used to determine the in vitro drug release from the formulations [35, 82]. […] Regularly, new dissolution medium samples were taken from the dissolution medium and replaced. A volumetric flask filled with 10 Ml of methanol was treated with 1 mL of the filtrate after it was filtered through Whatman filter paper No. 1. As needed, additional dilutions were made. A spectrophotometric technique was used to analyze the materials. Calculations were made with the Korsmeyer and Peppas model and the PCP Disso Version 2.08 programmed [83, 84, 85, 86, 87, 88] to determine the time needed for 50 and 85% drug release, respectively.
# [3] = Actual solubility of curcumin in lipids (laboratory experiment); assay type: physicochemical
# Excerpt: Table 2 Predicted versus actual results of curcumin solubility in different lipids. | column: Actual Solubility (mg/g)
smiles,measurement,setting,value
"COc1cc(/C=C/C(=O)CC(=O)/C=C/c2ccc(O)c(OC)c2)ccc1O [curcumin, Curcumin]",Papp at 8 h,"[1]; Wistar, rat gut, mucosal to serosal",4.88 ×10⁻⁶ cm/s
same,permeability through the rat gut,[1],6.83 ± 1.53 mcg/cm^2/h
same,permeability and penetration release rate in the intestine and the gut,[1]; as printed in Conclusions,6.83 ± 1.53 mg/cm^2/h
same,time to dissolve 50% of the curcumin,[2],more than 24 h
same,Actual Solubility,[3]; in liquid lipid Castor oil,3.52 ± 0.52 mg/g
same,Actual Solubility,[3]; in liquid lipid Corn oil,1.06 ± 0.15 mg/g
same,Actual Solubility,[3]; in liquid lipid Grape seeds oil,0.59 ± 0.64 mg/g
same,Actual Solubility,[3]; in liquid lipid Oleic acid,4.61 ± 0.13 mg/g
same,Actual Solubility,[3]; in liquid lipid Olive oil,3.48 ± 0.34 mg/g
same,Actual Solubility,[3]; in liquid lipid Soybean oil,1.36 ± 0.26 mg/g
same,Actual Solubility,[3]; in solid lipid Cetosteryl,2.06 ± 0.13 mg/g
same,Actual Solubility,[3]; in solid lipid GMS,3.58 ± 0.03 mg/g
same,Actual Solubility,[3]; in solid lipid Palmitic acid,3.28 ± 0.06 mg/g
same,Actual Solubility,[3]; in solid lipid Stearic acid,2.62 ± 0.12 mg/g
same,Actual Solubility,[3]; in solid lipid Tri Palmitin,3.25 ± 0.30 mg/g

# Reference: article PMC9965590, “Development of Computational In Silico Model for Nano Lipid Carrier Formulation of Curcumin” (Molecules, 2023)
